Here are results for twelve compounds from PMC5039535, “Dichotocejpins A–C: New Diketopiperazines from a Deep-Sea-Derived Fungus Dichotomomyces cejpii FS110” (Marine Drugs, 2016).

Some results are limits rather than exact numbers.

One series relates to SF-268 tumor cell line. Put plainly: SRB cytotoxicity assay, SF-268. The conditions noted are these: SRB method, mean ± s, n=3. In kind it is cell-based, human. As to the method: (§1) The in vitro cytotoxicities of compounds 1–11 were evaluated against the SF-268, MCF-7, NCI-H460, and HepG-2 tumor cell lines by the Sulforhodamine B (SRB) method.
(§2) Cytotoxicities of compounds (1–11) were assayed against four tumor cell lines SF-268, MCF-7, NCI-H460, and HepG-2. Assays were performed by the SRB method.
(In SRB staining, fixed cells bind dye roughly in proportion to their protein.)

For the next series, the system named is MCF-7 tumor cell line. Put plainly: SRB cytotoxicity assay, MCF-7. The class given is cell-based, human. The conditions noted are these: SRB method, mean ± s, n=3. As to the method:
as §1, §2

Another series concerns NCI-H460 tumor cell line. As to the kind of experiment: SRB cytotoxicity assay, NCI-H460. The class given is cell-based, human. The note with it: SRB method, mean ± s, n=3. The protocol: as §1, §2
The next series has as its system HepG-2 tumor cell line. Put plainly: SRB cytotoxicity assay, HepG-2. The class given is cell-based, human. The conditions noted are these: SRB method, mean ± s, n=3. As to the method:
as §1, §2

Another series deals with α-glucosidase. As to the kind of experiment: α-glucosidase inhibitory activity assay. The class given is biochemical. The conditions noted are these: in vitro; mean ± s, n=3. The protocol:
All compounds were evaluated in vitro for α-glucosidase inhibitory activities.
An assay of α-glucosidase inhibitory activity was performed as previously described.

For series [1], the system named is SF-268, MCF-7, NCI-H460, and HepG-2 tumor cell lines. As to the kind of experiment: SRB cytotoxicity, four tumor cell lines taken together. The note with it: for cytotoxic / inhibitory activity against the four tumor cell lines (in words): SF-268, MCF-7, NCI-H460, HepG-2, SRB method; for IC50: Homo sapiens, range over SF-268, MCF-7, NCI-H460, HepG-2, read-out: IC50 values against the four tumor cell lines. The class given is cell-based, human. The protocol:
as §1, §2

Consider `CN1C(=O)[C@]2(O)Cc3ccccc3N2C(=O)[C@H]1CO` [Compound 3, dichotocejpin C], for which the IC50 (as a rule, the concentration that inhibits the measured activity by half) was over 100 µM with SF-268 tumor cell line (Homo sapiens, SF-268); over 100 µM in the series on MCF-7 tumor cell line (Homo sapiens, MCF7); over 100 µM with NCI-H460 tumor cell line (Homo sapiens, NCI-H460); over 100 µM with HepG-2 tumor cell line (Homo sapiens, HepG2); over 500 µM at α-glucosidase. In series [1], the “cytotoxic / inhibitory activity against the four tumor cell lines (in words)” value (“cytotoxic / inhibitory activity” for short) was “inactive or weak”.
With “bisdethiobis(methylthio)gliotoxin [Compound 9]”, the IC50 is over 100 µM in the series with SF-268 tumor cell line; over 100 µM in the series with MCF-7 tumor cell line; over 100 µM with NCI-H460 tumor cell line; over 100 µM with HepG-2 tumor cell line; over 500 µM on α-glucosidase.
As to `CC(=O)O[C@H]1C=CC=C2C[C@]34SS[C@](CO)(C(=O)N3C21)N(C)C4=O` (stereo partly shown) [Compound 6, acetylgliotoxin], the half-inhibitory concentration (IC50) in the series with SF-268 tumor cell line (Homo sapiens, SF-268) was 0.25 ± 0.03 µM; in the series with MCF-7 tumor cell line (Homo sapiens, MCF7), 0.22 ± 0.04 µM; with NCI-H460 tumor cell line (Homo sapiens, NCI-H460), 0.32 ± 0.02 µM; in the series on HepG-2 tumor cell line (Homo sapiens, HepG2) it was 0.49 ± 0.07 µM; at α-glucosidase it was over 500 µM; in series [1], 0.08 to 1.52 µM.
For `C=c1c(=O)n2c(cc3ccccc32)c(=O)n1C` [Compound 11, 1,2,3,4-tetrahydro-2-methyl-3-methylene-1,4-dioxopyrazino[1,2-a]indole], the IC50 in the series on SF-268 tumor cell line (Homo sapiens, SF-268) was 3.3 ± 0.28 µM; in the series with MCF-7 tumor cell line (Homo sapiens, MCF7) it was 4.67 ± 1.4 µM; with NCI-H460 tumor cell line (Homo sapiens, NCI-H460), 12.3 ± 0.24 µM; in the series with HepG-2 tumor cell line (Homo sapiens, HepG2) it was 2.29 ± 0.3 µM; at α-glucosidase it was over 500 µM. Moreover, in series [1], the “cytotoxic / inhibitory activity” value is listed as “significant inhibitory activities”.
Turning to `CSC1(Cc2ccccc2)NC(=O)C(CO)NC1=O` (stereo not shown) [Compound 8, 3-benzyl-6-(hydroxymethyl)-3-(methylthio)piperazine-2,5-dione], the IC50 is over 100 µM in the series on SF-268 tumor cell line (Homo sapiens, SF-268); over 100 µM in the series with MCF-7 tumor cell line (Homo sapiens, MCF7); over 100 µM in the series with NCI-H460 tumor cell line (Homo sapiens, NCI-H460); over 100 µM with HepG-2 tumor cell line (Homo sapiens, HepG2); over 500 µM at α-glucosidase.
With `CS[C@]1(CO)C(=O)N2[C@H]3C(=CC=C[C@@H]3OC(C)=O)C[C@@]2(SC)C(=O)N1C` [Compound 10, 6-acetylbis(methylthio)gliotoxin], the IC50 with SF-268 tumor cell line (Homo sapiens, SF-268) is 34 ± 3.6 µM; in the series with MCF-7 tumor cell line (Homo sapiens, MCF7), 3.1 ± 0.1 µM; in the series with NCI-H460 tumor cell line (Homo sapiens, NCI-H460), 5.4 ± 0.6 µM; with HepG-2 tumor cell line (Homo sapiens, HepG2), 7 ± 0.17 µM; on α-glucosidase, over 500 µM. For the same compound, in series [1], the “cytotoxic / inhibitory activity” value is “significant inhibitory activities”.
Take `C=C1C(=O)N2C3C(=CC=CC3OC(C)=O)CC2(O)C(=O)N1C` (stereo not shown) [Compound 2, dichotocejpin B]: the IC50 with SF-268 tumor cell line (Homo sapiens, SF-268) was over 100 µM; in the series with MCF-7 tumor cell line (Homo sapiens, MCF7) it was over 100 µM; with NCI-H460 tumor cell line (Homo sapiens, NCI-H460), over 100 µM; in the series with HepG-2 tumor cell line (Homo sapiens, HepG2), over 100 µM; against α-glucosidase, over 500 µM. The “cytotoxic / inhibitory activity” value in series [1] is “inactive or weak”.
Take `CS[C@@]1(CO)NC(=O)[C@@](Cc2ccccc2)(SC)NC1=O` [Compound 7, bis-N-norgliovictin]: the IC50 was over 100 µM in the series with SF-268 tumor cell line (Homo sapiens, SF-268); over 100 µM in the series on MCF-7 tumor cell line (Homo sapiens, MCF7); over 100 µM in the series with NCI-H460 tumor cell line (Homo sapiens, NCI-H460); over 100 µM in the series with HepG-2 tumor cell line (Homo sapiens, HepG2); over 500 µM at α-glucosidase.
`CN1C(=O)[C@]23Cc4ccccc4N2C(=O)[C@@]1(CO)SS3` [Compound 4, 6-deoxy-5a,6-didehydrogliotoxin]: the IC50 in the series on SF-268 tumor cell line (Homo sapiens, SF-268) was 1.35 ± 0.05 µM; with MCF-7 tumor cell line (Homo sapiens, MCF7), 0.68 ± 0.02 µM; in the series on NCI-H460 tumor cell line (Homo sapiens, NCI-H460) it was 1.27 ± 0.04 µM; in the series on HepG-2 tumor cell line (Homo sapiens, HepG2), 1.52 ± 0.03 µM; against α-glucosidase, over 500 µM; in series [1], 0.08 to 1.52 µM.
On to `CN1C(=O)[C@]23CC4=CC=C[C@H](O)[C@H]4N2C(=O)[C@@]1(CO)SS3` [Compound 5, gliotoxin], for which the IC50 with SF-268 tumor cell line (Homo sapiens, SF-268) is 0.24 ± 0.1 µM; in the series on MCF-7 tumor cell line (Homo sapiens, MCF7), 0.08 µM; in the series on NCI-H460 tumor cell line (Homo sapiens, NCI-H460) it was 0.24 ± 0.01 µM; in the series on HepG-2 tumor cell line (Homo sapiens, HepG2), 0.21 ± 0.01 µM; at α-glucosidase, over 500 µM; in series [1], 0.08 to 1.52 µM.
Turning to `N.N.[Cl][Pt][Cl]` [cisplatin, reference compound], the IC50 with SF-268 tumor cell line amounted to 2.37 ± 0.35 µM; with MCF-7 tumor cell line, 3.09 ± 0.27 µM; in the series with NCI-H460 tumor cell line, 2.43 ± 0.15 µM; in the series on HepG-2 tumor cell line, 1.39 ± 0.18 µM.
Consider `CSC1(CO)C(=O)n2c(cc3ccccc32)C(=O)N1C` (stereo not shown) [Compound 1, dichotocejpin A], for which the IC50 is 35.7 ± 2.1 µM in the series with SF-268 tumor cell line (Homo sapiens, SF-268); 29.5 ± 2.3 µM in the series on MCF-7 tumor cell line (Homo sapiens, MCF7); over 100 µM in the series on NCI-H460 tumor cell line (Homo sapiens, NCI-H460); 28.9 ± 3 µM with HepG-2 tumor cell line (Homo sapiens, HepG2); 138 ± 6.7 µM on α-glucosidase. Moreover, the “cytotoxic / inhibitory activity” value in series [1] is “inactive or weak”.
